Reference: ChEMBL document CHEMBL3885881, “DrugMatrix”

Species on record: Rattus norvegicus
Assay: DrugMatrix - Regimen: Daily Repeat
Format: toxicity, organism-based, Sprague-Dawley
Parameters: regimen Daily Repeat, gender Male, age 6-8 weeks
Details: in vivo, po, route oral GAVAGE, vehicle .5 % CMC; for ABSOLUTE BASOPHIL / ABSOLUTE EOSINOPHIL / ABSOLUTE LYMPHOCYTE / ABSOLUTE MONOCYTE / ABSOLUTE SEGMENTED NEUTROPHIL / BASOPHIL / EOSINOPHIL / ERYTHROCYTE COUNT / HEMATOCRIT / HEMOGLOBIN / LEUKOCYTE COUNT / LYMPHOCYTE / MEAN CORPUSCULAR HEMOGLOBIN / MEAN CORPUSCULAR HEMOGLOBIN CONCENTRATION / MEAN CORPUSCULAR VOLUME / MONOCYTE / NEUTROPHIL / NUCLEATED RED BLOOD CELLS / PLATELET COUNT: tissue Blood; for ALANINE AMINOTRANSFERASE / ALBUMIN / ALKALINE PHOSPHATASE / ASPARTATE AMINOTRANSFERASE / BLOOD UREA NITROGEN / CARBON DIOXIDE / CHLORIDE / CHOLESTEROL / CREATINE PHOSPHOKINASE / CREATININE / GLUCOSE / LACTATE DEHYDROGENASE / LIPASE / PHOSPHORUS / POTASSIUM / SODIUM / TOTAL BILIRUBIN / TOTAL PROTEIN / URIC ACID: tissue Plasma
[1] = 100 mg/kg, 72 h, dose level Low, time 3 day
[2] = 100 mg/kg, 120 h, dose level Low, time 5 day
[3] = 1500 mg/kg, 72 h, dose level High, time 3 day
[4] = 1500 mg/kg, 120 h, dose level High, time 5 day

In the case of Nc1nc2c(c(=O)[nH]1)N(C=O)C(CNc1ccc(C(=O)N[C@@H](CCC(=O)O)C(=O)O)cc1)CN2 (some centres not stated) [LEUCOVORIN], the “ABSOLUTE BASOPHIL” value [1] was 0 CELLS/uL, the “ABSOLUTE EOSINOPHIL” value [1] was 0 CELLS/uL and the “ABSOLUTE LYMPHOCYTE” value [1] was 14793 CELLS/uL. The “ABSOLUTE MONOCYTE” value [1] was 101.33 CELLS/uL, the “ABSOLUTE SEGMENTED NEUTROPHIL” value [1] was 1572.33 CELLS/uL and the BASOPHIL [1] was 0%. For the same compound, the EOSINOPHIL [1] was 0%, the “ERYTHROCYTE COUNT” value [1] was 5.73 x10E6/uL and the HEMATOCRIT [1] was 35.97%. The HEMOGLOBIN [1] was 14.23 G/DL, the “LEUKOCYTE COUNT” value [1] was 16.47 x10E3/uL and the LYMPHOCYTE [1] was 89.67%. For the same compound, the “MEAN CORPUSCULAR HEMOGLOBIN” value [1] was 24.9 pg, the “MEAN CORPUSCULAR HEMOGLOBIN CONCENTRATION” value [1] was 39.63 G/DL and the “MEAN CORPUSCULAR VOLUME” value [1] was 62.83 fL. For the same compound, the MONOCYTE [1] was 0.67%, the NEUTROPHIL [1] was 9.67% and the “NUCLEATED RED BLOOD CELLS” value [1] was 0.33 /100WBC. The “PLATELET COUNT” value [1] was 1244.67 x10E3/uL, the “ALANINE AMINOTRANSFERASE” value [1] was 62.33 u/L and the ALBUMIN [1] was 4.43 G/DL. The “ALKALINE PHOSPHATASE” value [1] was 427.33 u/L, the “ASPARTATE AMINOTRANSFERASE” value [1] was 83.67 u/L and the “BLOOD UREA NITROGEN” value [1] was 16.33 mg/dL. For the same compound, the “CARBON DIOXIDE” value [1] was 29 mmol/L, the CHLORIDE [1] was 98.67 MEQ/L and the CHOLESTEROL [1] was 67 mg/dL. For the same compound, the “CREATINE PHOSPHOKINASE” value [1] was 289.67 u/L, the CREATININE [1] was 0.22 mg/dL and the GLUCOSE [1] was 142 mg/dL. For the same compound, the “LACTATE DEHYDROGENASE” value [1] was 152.33 u/L, the LIPASE [1] was 9.33 u/L and the PHOSPHORUS [1] was 14.03 mg/dL. For the same compound, the POTASSIUM [1] was 7.04 MEQ/L, the SODIUM [1] was 146.13 MEQ/L and the “TOTAL BILIRUBIN” value [1] was 0.3 mg/dL. For the same compound, the “TOTAL PROTEIN” value [1] was 6.1 G/DL, the “URIC ACID” value [1] was 1.77 mg/dL and the “ABSOLUTE BASOPHIL” value [2] was 0 CELLS/uL. For the same compound, the “ABSOLUTE EOSINOPHIL” value [2] was 60.33 CELLS/uL, the “ABSOLUTE LYMPHOCYTE” value [2] was 13263.33 CELLS/uL and the “ABSOLUTE MONOCYTE” value [2] was 23.33 CELLS/uL. For the same compound, the “ABSOLUTE SEGMENTED NEUTROPHIL” value [2] was 1019.67 CELLS/uL, the BASOPHIL [2] was 0% and the EOSINOPHIL [2] was 0.33%. For the same compound, the “ERYTHROCYTE COUNT” value [2] was 5.54 x10E6/uL, the HEMATOCRIT [2] was 36.17% and the HEMOGLOBIN [2] was 13.53 G/DL. The “LEUKOCYTE COUNT” value [2] was 14.37 x10E3/uL, the LYMPHOCYTE [2] was 92.67% and the “MEAN CORPUSCULAR HEMOGLOBIN” value [2] was 24.4 pg. For the same compound, the “MEAN CORPUSCULAR HEMOGLOBIN CONCENTRATION” value [2] was 37.4 G/DL, the “MEAN CORPUSCULAR VOLUME” value [2] was 65.23 fL and the MONOCYTE [2] was 0.33%. For the same compound, the NEUTROPHIL [2] was 6.67%, the “NUCLEATED RED BLOOD CELLS” value [2] was 1 /100WBC and the “PLATELET COUNT” value [2] was 1225.67 x10E3/uL. The “ALANINE AMINOTRANSFERASE” value [2] was 52 u/L, the ALBUMIN [2] was 4.3 G/DL and the “ALKALINE PHOSPHATASE” value [2] was 311.67 u/L. For the same compound, the “ASPARTATE AMINOTRANSFERASE” value [2] was 76 u/L, the “BLOOD UREA NITROGEN” value [2] was 15.33 mg/dL and the “CARBON DIOXIDE” value [2] was 26 mmol/L. The CHLORIDE [2] was 102 MEQ/L, the CHOLESTEROL [2] was 57.33 mg/dL and the “CREATINE PHOSPHOKINASE” value [2] was 211.67 u/L. The CREATININE [2] was 0.21 mg/dL, the GLUCOSE [2] was 175.67 mg/dL and the “LACTATE DEHYDROGENASE” value [2] was 113.33 u/L. The LIPASE [2] was 8.67 u/L, the PHOSPHORUS [2] was 12.6 mg/dL and the POTASSIUM [2] was 6.61 MEQ/L. The SODIUM [2] was 146.23 MEQ/L, the “TOTAL BILIRUBIN” value [2] was 0.23 mg/dL and the “TOTAL PROTEIN” value [2] was 6.1 G/DL. The “URIC ACID” value [2] was 1.7 mg/dL, the “ABSOLUTE BASOPHIL” value [3] was 0 CELLS/uL and the “ABSOLUTE EOSINOPHIL” value [3] was 0 CELLS/uL. For the same compound, the “ABSOLUTE LYMPHOCYTE” value [3] was 14453.33 CELLS/uL, the “ABSOLUTE MONOCYTE” value [3] was 60 CELLS/uL and the “ABSOLUTE SEGMENTED NEUTROPHIL” value [3] was 2253.33 CELLS/uL. The BASOPHIL [3] was 0%, the EOSINOPHIL [3] was 0% and the “ERYTHROCYTE COUNT” value [3] was 5.28 x10E6/uL. For the same compound, the HEMATOCRIT [3] was 35.03%, the HEMOGLOBIN [3] was 13.77 G/DL and the “LEUKOCYTE COUNT” value [3] was 16.77 x10E3/uL. The LYMPHOCYTE [3] was 86.33%, the “MEAN CORPUSCULAR HEMOGLOBIN” value [3] was 26.07 pg and the “MEAN CORPUSCULAR HEMOGLOBIN CONCENTRATION” value [3] was 39.33 G/DL. For the same compound, the “MEAN CORPUSCULAR VOLUME” value [3] was 66.33 fL, the MONOCYTE [3] was 0.33% and the NEUTROPHIL [3] was 13.33%. The “NUCLEATED RED BLOOD CELLS” value [3] was 0 /100WBC, the “PLATELET COUNT” value [3] was 1212 x10E3/uL and the “ALANINE AMINOTRANSFERASE” value [3] was 44.33 u/L. The ALBUMIN [3] was 4.3 G/DL, the “ALKALINE PHOSPHATASE” value [3] was 372.67 u/L and the “ASPARTATE AMINOTRANSFERASE” value [3] was 77.67 u/L. The “BLOOD UREA NITROGEN” value [3] was 11.33 mg/dL, the “CARBON DIOXIDE” value [3] was 32 mmol/L and the CHLORIDE [3] was 102 MEQ/L. The CHOLESTEROL [3] was 68.33 mg/dL, the “CREATINE PHOSPHOKINASE” value [3] was 183.67 u/L and the CREATININE [3] was 0.15 mg/dL. For the same compound, the GLUCOSE [3] was 156 mg/dL, the “LACTATE DEHYDROGENASE” value [3] was 116 u/L and the LIPASE [3] was 8.67 u/L. It also gave a PHOSPHORUS [3] of 13.4 mg/dL, a POTASSIUM [3] of 6.98 MEQ/L and an SODIUM [3] of 146.03 MEQ/L. For the same compound, the “TOTAL BILIRUBIN” value [3] was 0.17 mg/dL, the “TOTAL PROTEIN” value [3] was 6 G/DL and the “URIC ACID” value [3] was 1.83 mg/dL. For the same compound, the “ABSOLUTE BASOPHIL” value [4] was 0 CELLS/uL, the “ABSOLUTE EOSINOPHIL” value [4] was 46.33 CELLS/uL and the “ABSOLUTE LYMPHOCYTE” value [4] was 14356 CELLS/uL. For the same compound, the “ABSOLUTE MONOCYTE” value [4] was 200.33 CELLS/uL, the “ABSOLUTE SEGMENTED NEUTROPHIL” value [4] was 930.67 CELLS/uL and the BASOPHIL [4] was 0%. For the same compound, the EOSINOPHIL [4] was 0.33%, the “ERYTHROCYTE COUNT” value [4] was 5.73 x10E6/uL and the HEMATOCRIT [4] was 35.37%. The HEMOGLOBIN [4] was 14.17 G/DL, the “LEUKOCYTE COUNT” value [4] was 15.53 x10E3/uL and the LYMPHOCYTE [4] was 92.33%. The “MEAN CORPUSCULAR HEMOGLOBIN” value [4] was 24.8 pg, the “MEAN CORPUSCULAR HEMOGLOBIN CONCENTRATION” value [4] was 40.07 G/DL and the “MEAN CORPUSCULAR VOLUME” value [4] was 61.77 fL. For the same compound, the MONOCYTE [4] was 1.33%, the NEUTROPHIL [4] was 6% and the “NUCLEATED RED BLOOD CELLS” value [4] was 0 /100WBC. The “PLATELET COUNT” value [4] was 1112.33 x10E3/uL, the “ALANINE AMINOTRANSFERASE” value [4] was 56.67 u/L and the ALBUMIN [4] was 4.3 G/DL. The “ALKALINE PHOSPHATASE” value [4] was 387 u/L, the “ASPARTATE AMINOTRANSFERASE” value [4] was 87.33 u/L and the “BLOOD UREA NITROGEN” value [4] was 16.33 mg/dL. The “CARBON DIOXIDE” value [4] was 36 mmol/L, the CHLORIDE [4] was 99.67 MEQ/L and the CHOLESTEROL [4] was 57.33 mg/dL. For the same compound, the “CREATINE PHOSPHOKINASE” value [4] was 288.67 u/L, the CREATININE [4] was 0.2 mg/dL and the GLUCOSE [4] was 147 mg/dL. For the same compound, the “LACTATE DEHYDROGENASE” value [4] was 263.67 u/L, the LIPASE [4] was 9 u/L and the PHOSPHORUS [4] was 12.9 mg/dL. The POTASSIUM [4] was 6.55 MEQ/L, the SODIUM [4] was 145.83 MEQ/L and the “TOTAL BILIRUBIN” value [4] was 0.2 mg/dL. The “TOTAL PROTEIN” value [4] was 6.13 G/DL and the “URIC ACID” value [4] was 1.37 mg/dL.
